Tests used:
Flt-3 = target: T1, Flt-3 (Homo sapiens, UniProt P36888); assay: Flt-3 kinase inhibition (GST-Flt-3, 33P incorporation into poly(Glu,Tyr)); assay type: biochemical
T1 construct: amino acids 563-993 of the cytoplasmic kinase domain of human Flt-3; made in house; host or cells: Sf9 insect cells (baculovirus, vector pFbacG01)
T1 sequence (P36888 563-993): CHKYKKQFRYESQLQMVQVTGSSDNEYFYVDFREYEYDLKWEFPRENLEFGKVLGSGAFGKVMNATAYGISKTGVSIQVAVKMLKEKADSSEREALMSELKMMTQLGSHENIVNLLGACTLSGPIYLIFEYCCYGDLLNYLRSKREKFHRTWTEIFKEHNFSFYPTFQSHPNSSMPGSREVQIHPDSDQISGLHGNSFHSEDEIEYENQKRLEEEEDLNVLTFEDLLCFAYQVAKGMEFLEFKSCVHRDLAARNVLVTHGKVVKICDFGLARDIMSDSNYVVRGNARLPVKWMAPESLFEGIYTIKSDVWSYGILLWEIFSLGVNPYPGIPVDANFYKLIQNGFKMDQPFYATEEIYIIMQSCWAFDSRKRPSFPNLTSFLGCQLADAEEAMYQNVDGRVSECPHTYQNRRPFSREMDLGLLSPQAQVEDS
Description: Flt-3 kinase inhibition is determined as follows: The baculovirus donor vector pFbacG01 (GIBCO) is used to generate a recombinant baculovirus expressing the amino acid region amino acids 563-993 of the cytoplasmic kinase domain of human Flt-3. The coding sequence for the cytoplasmic domain of Flt-3 is amplified by PCR from human c-DNA libraries (Clontech). The amplified DNA fragments and the pFbacG01 vector are made compatible for ligation by digestion with BamHI and HindIII. Ligation of these DNA fragments results in the baculovirus donor plasmid pFbacG01-Flt-3. The production of the viruses, the expression of proteins in Sf9 cells and the purification of the GST-fused proteins are performed as follows:
Production of virus: The baculovirus donor plasmid (pFbacG01-Flt-3) containing the Flt-3 kinase domain is transfected into the DH10Bac cell line (GIBCO) and the transfected cells are plated on selective agar plates. Colonies without insertion of the fusion sequence into the viral genome (carried by the bacteria) are blue. Single white colonies are picked and viral DNA (bacmid) is isolated from the bacteria by standard plasmid purification procedures. Sf9 or Sf21 cells (American Type Culture Collection) are then transfected in flasks with the viral DNA using Cellfectin reagent.
Protein expression in Sf9 cells: Virus containing media is collected from the transfected cell culture and used for infection to increase its titre. Virus containing media obtained after two rounds of infection is used for large-scale protein expression. For large-scale protein expression 100 cm^2 round tissue culture plates are seeded with 5×10^7 cells/plate and infected with 1 mL of virus-containing media (approx. 5 MOIs). After 3 days the cells are scraped off the plate and centrifuged at 500 rpm for 5 min. Cell pellets from 10-20, 100 cm^2 plates are resuspended in 50 mL of ice-cold lysis buffer (25 mM Tris-HCl, pH 7.5, 2 mM EDTA-1% NP-40. 1 mM DTT, 1 mM PMSF). The cells are stirred on ice for 15 min and then centrifuged at 5000 rpms for 20 min.
Purification of GST-tagged protein: The centrifuged cell lysate is loaded onto a 2 mL glutathione-sepharose column (Pharmacia) and washed three times with 10 mL of 25 mM Tris-HCl, pH 7.5, 2 mM EDTA, 1 mM DTT, 200 mM NaCl. The GST-tagged protein is then eluted by 10 applications (1 mL each) of 25 mM Tris-HCl, pH 7.5, 10 mM reduced-glutathione, 100 mM NaCl, 1 mM DTT, 10% Glycerol and stored at −70° C.
Measurement of enzyme activity: Tyrosine protein kinase assays with purified GST-Flt-3 protein are carried out in a final volume of 30 μL containing 200-1800 ng of enzyme protein (depending on the specific activity), 20 mM Tris-HCl, pH 7.6, 3 mM MnCl2, 3 mM MgCl2, 1 mM DTT, 10 μM Na3VO4, 3 μg/mL poly(Glu, Tyr) 4:1, 1% DMSO, 8.0 μM ATP and 0.1 μCi [γ^33 P] ATP. The activity is assayed in the presence or absence of inhibitors, by measuring the incorporation of ^33P from [γ^33P] ATP into the poly(Glu,Tyr) substrate. The assay (30 μL) is carried out in 96-well plates at ambient temperature for 20 min and terminated by the addition of 20 μL of 125 mM EDTA. Subsequently, 40 μL of the reaction mixture is transferred onto Immobilon-PVDF membrane (Millipore, Bedford, Mass., USA) previously soaked for 5 min with methanol, rinsed with water, then soaked for 5 min with 0.5% H3PO4 and mounted on vacuum manifold with disconnected vacuum source. After spotting all samples, vacuum is connected and each well rinsed with 200 μL 0.5% H3PO4. Membranes are removed and washed 4× on a shaker with 1.0% H3PO4, once with ethanol. Membranes are counted after drying at ambient temperature, mounting in Packard TopCount 96-well frame, and addition of 10 μL/well of Microscint™ (Packard). IC50 values are calculated by linear regression analysis of the percentage inhibition of each compound in duplicate, at four concentrations (usually 0.01, 0.1, 1 and 10 μM). One unit of protein kinase activity is defined as 1 nmole of ^33P transferred from [γ3P] […]

SMILES: CC(C)N1CCN(Cc2cc(NC(=O)Nc3ccc(Oc4cc(Cl)ncn4)cc3)cc(C(F)(F)F)c2)CC1 [Example 5, N-[4-(6-Chloro-pyrimidin-4-yloxy)-phenyl]-N′-[3-(4-isopropylpiperazin-1-ylmethyl)-5-trifluoromethyl-phenyl]-urea]
- melting point: 101 °C
- IC50 (Flt-3): 540 nM

SMILES: CN1CCN(Cc2cc(NC(=O)Nc3ccc(Oc4cc(Cl)ncn4)cc3)cc(C(F)(F)F)c2)CC1 [Example 9, N-[4-(6-Chloro-Pyrimidin-4-yloxy)-phenyl]-N′-[3-(4-methylpiperazin-1-ylmethyl)-5-trifluoromethyl-phenyl]-urea]
- melting point: 291 to 292 °C
- IC50 (Flt-3): 320 nM

SMILES: CCN(CC)Cc1cc(NC(=O)Nc2ccc(Oc3cc(NC)ncn3)cc2)cc(C(F)(F)F)c1 [Example 11, N-[4-(6-Methylamino-pyrimidin-4-yloxy)-phenyl]-N′-(3-diethylaminomethyl-5-trifluoromethyl-phenyl)-urea]
- melting point: 68 to 70 °C
- IC50 (Flt-3): 230 nM

SMILES: CCN(CC)Cc1cc(NC(=O)Nc2ccc(Oc3cc(N)ncn3)cc2)cc(C(F)(F)F)c1 [Example 13, N-[4-(6-Amino-pyrimidin-4-yloxy)-phenyl]-N′-(3-diethylaminomethyl-5-trifluoromethyl-phenyl)-urea]
- melting point: 63 to 65 °C
- IC50 (Flt-3): 340 nM

SMILES: Nc1cc(Oc2ccc(NC(=O)Nc3ccc(CN4CCNCC4)c(C(F)(F)F)c3)cc2)ncn1 [Example 19-1, N-[4-(6-Amino-pyrimidin-4-yloxy)-phenyl]-N′-[4-(4-H-piperazin-1-ylmethyl)-5-trifluoromethyl-phenyl]-urea]
- melting point: 153 to 155 °C
- IC50 (Flt-3): 38 nM

SMILES: CNc1cc(Oc2ccc(NC(=O)Nc3ccc(CN4CCNCC4)c(C(F)(F)F)c3)cc2)ncn1 [Example 19-2, N-[4-(6-Methylamino-pyrimidin-4-yloxy)-phenyl]-N′-[4-(4-H-piperazin-1-ylmethyl)-5-trifluoromethyl-phenyl]-urea]
- melting point: 197 to 198 °C
- IC50 (Flt-3): 80 nM

SMILES: CN(C)Cc1ccc(NC(=O)Nc2ccc(Oc3cc(Cl)ncn3)cc2)cc1C(F)(F)F [Example 20-2, N-[4-(6-Chloro-pyrimidin-4-yloxy)-phenyl]-N′-[4-(N,N-dimethylamino-methyl)-3-trifluoromethyl-phenyl]-urea]
- melting point: 98 to 105 °C

SMILES: Cc1ncn(Cc2ccc(NC(=O)Nc3ccc(Oc4cc(Cl)ncn4)cc3)cc2C(F)(F)F)c1C [Example 23, N-[4-(6-Chloro-pyrimidin-4-yloxy)-phenyl]-N′-[4-(4,5-dimethylimidazol-1-ylmethyl)-3-trifluoromethyl-phenyl]-urea]
- melting point: 195 to 196 °C
- IC50 (Flt-3): 1300 nM

SMILES: Cc1nccn1Cc1ccc(NC(=O)Nc2ccc(Oc3cc(Cl)ncn3)cc2)cc1C(F)(F)F [Example 24, N-[4-(6-Chloro-pyrimidin-4-yloxy)-phenyl]-N′-[4-(2-methylimidazol-1-ylmethyl)-3-trifluoromethyl-phenyl]-urea]
- melting point: 228 °C
- IC50 (Flt-3): 170 nM

SMILES: CCN1CCN(Cc2ccc(NC(=O)Nc3ccc(Oc4cc(Cl)ncn4)cc3)cc2)CC1 [Example 27, N-[4-(6-Chloro-pyrimidin-4-yloxy)-phenyl]-N′-[4-(4-ethylpiperazin-1-ylmethyl)-phenyl]-urea]
- melting point: 203 to 204 °C

SMILES: CNc1nccc(Oc2ccc(NC(=O)Nc3ccc(CN(C)C)c(C(F)(F)F)c3)cc2)n1 [Example 48, N-[4-(2-Methylamino-pyrimidin-4-yloxy)-phenyl]-N′-[4-(4-dimethylamino-methyl) 3-trifluoromethyl-phenyl]-urea]
- IC50 (Flt-3): 580 nM

SMILES: Cc1nccn1Cc1ccc(NC(=O)Nc2ccc(Oc3ccnc(N)n3)cc2)cc1C(F)(F)F [Example 51b.1]
- IC50 (Flt-3): 130 nM

SMILES: CNc1nccc(Oc2ccc(NC(=O)Nc3ccc(Cn4ccnc4C)c(C(F)(F)F)c3)cc2)n1 [Example 51b.2]
- IC50 (Flt-3): 170 nM

SMILES: CCN1CCN(Cc2ccc(NC(=O)Nc3ccc(Oc4ccnc(N)n4)cc3)cc2C)CC1 [Example 51d.1]
- IC50 (Flt-3): 91 nM

SMILES: CCN1CCN(Cc2ccc(NC(=O)Nc3ccc(Oc4ccnc(NC)n4)cc3)cc2C)CC1 [Example 51d.2]
- IC50 (Flt-3): 135 nM

SMILES: CCN1CCN(Cc2ccc(NC(=O)Nc3ccc(Oc4ccnc(N)n4)cc3)cc2)CC1 [Example 51e.1]
- IC50 (Flt-3): 250 nM

SMILES: CCN1CCN(Cc2ccc(NC(=O)Nc3ccc(Oc4ccnc(NC)n4)cc3)cc2)CC1 [Example 51e.2]
- IC50 (Flt-3): 910 nM

SMILES: Nc1nccc(Oc2ccc(NC(=O)Nc3cccc(C(F)(F)F)c3)cc2)n1 [Example 52b]
- IC50 (Flt-3): 80 nM

SMILES: Nc1nccc(Oc2ccc(NC(=O)Nc3cc(-c4ccccn4)cc(C(F)(F)F)c3)cc2)n1 [Example 52d]
- IC50 (Flt-3): 260 nM

SMILES: COc1cccc(Nc2cc(Oc3ccc(NC(=O)Nc4ccc(N5CCOCC5)c(C(F)(F)F)c4)cc3)ncn2)c1 [Example 55c]
- IC50 (Flt-3): 370 nM

SMILES: O=C(Nc1ccc(Oc2cc(NC3CCC(O)CC3)ncn2)cc1)Nc1ccc(N2CCOCC2)c(C(F)(F)F)c1 (stereo not drawn) [Example 55d]
- IC50 (Flt-3): 970 nM

SMILES: Nc1cc(Oc2ccc(NC(=O)Nc3ccc(-c4ccccn4)c(C(F)(F)F)c3)cc2)ncn1 [Example 57, 1-[4-(6-Amino-pyrimidin-4-yloxy)-phenyl]-3-(4-pyridin-2-yl-3-trifluoromethyl-phenyl)-urea]
- IC50 (Flt-3): 118 nM

SMILES: Nc1cc(Oc2ccc(NC(=O)Nc3ccc(-c4cccnc4)c(C(F)(F)F)c3)cc2)ncn1 [Example 58, 1-[4-(6-Amino-pyrimidin-4-yloxy)-phenyl]-3-(4-pyridin-3-yl-3-trifluoromethyl-phenyl)-urea]
- melting point: 132 to 135 °C
- IC50 (Flt-3): 120 nM

SMILES: Nc1cc(Oc2ccc(NC(=O)Nc3ccc(-c4ccncc4)c(C(F)(F)F)c3)cc2)ncn1 [Example 59, 1-[4-(6-Amino-pyrimidin-4-yloxy)-phenyl]-3-(4-pyridine-4-yl-3-trifluoromethyl-phenyl)-urea]
- melting point: 131 to 135 °C
- IC50 (Flt-3): 76 nM

SMILES: Cc1cccc(-c2ccc(NC(=O)Nc3ccc(Oc4cc(N)ncn4)cc3)cc2C(F)(F)F)n1 [Example 60, 1-[4-(6-Amino-pyrimidin-4-yloxy)-phenyl]-3-[4-(6-methyl-pyridin-2-yl)-3-trifluoromethyl-phenyl]-urea]
- melting point: 130 to 133 °C
- IC50 (Flt-3): 160 nM

SMILES: CNc1cc(Oc2ccc(NC(=O)Nc3ccc(-c4ccccn4)c(C(F)(F)F)c3)cc2)ncn1 [Example 61, 1-[4-(6-Methylamino-pyrimidin-4-yloxy)-phenyl]-3-(4-pyridin-2-yl-3-trifluoromethyl-phenyl)-urea]
- melting point: 114 to 118 °C
- IC50 (Flt-3): 490 nM

SMILES: CCN1CCN(Cc2ccc(NC(=O)Nc3ccc(Oc4cc(NC(=O)OC)ncn4)cc3)cc2C(F)(F)F)CC1 [Example 70]
- melting point: 191 to 193 °C
